US7919091B2, “Lipolysis stimulated receptor (LSR) specific antibodies” (Serono Genetics Institute S.A., priority 1997, dated 2011)

Experiments:
LSR receptors = assay type: cell-based, rat; details: after leptin; 5 μM cycloheximide or 2.5 μM cytochalasin B, 30 min 37° C.
Method: Primary cultures of rat hepatocytes are incubated for 30 min at 37° C. in the presence or in the absence of 20 ng/ml of leptin, for 10 min at 37° C. in the presence of 0.8 mM oleate. The cells are washed with PBS buffer precooled to 4° C., and then incubated for 2 hours at 4° C. in the presence of increasing concentrations of ^125I-LDL. The cells are then washed, lysed and the quantity of bound ^125I-LDL is measured.
The initial conditions are identical to those described above; after incubation with leptin, the cells are incubated for 30 min at 37° C. with 5 μM cycloheximide, 5 μM colchicine or 2.5 μM cytochalasin B. The cells are then incubated for 10 min at 37° C. in the presence of 0.8 mM oleate. The cells are then washed with PBS buffer precooled to 4° C., and then incubated for 2 hours at 4° C. in the presence of 50 μg/ml of ^125I-LDL. 2 measurements are carried out, and the mean results are presented.

LSR = biological target: T1, LSR (Rattus norvegicus, UniProt Q9WU74); assay: Effect of C1q on binding, internalization and degradation of LDLs by hepatocytes in primary culture; assay type: cell-based
T1 sequence (Q9WU74 36-593): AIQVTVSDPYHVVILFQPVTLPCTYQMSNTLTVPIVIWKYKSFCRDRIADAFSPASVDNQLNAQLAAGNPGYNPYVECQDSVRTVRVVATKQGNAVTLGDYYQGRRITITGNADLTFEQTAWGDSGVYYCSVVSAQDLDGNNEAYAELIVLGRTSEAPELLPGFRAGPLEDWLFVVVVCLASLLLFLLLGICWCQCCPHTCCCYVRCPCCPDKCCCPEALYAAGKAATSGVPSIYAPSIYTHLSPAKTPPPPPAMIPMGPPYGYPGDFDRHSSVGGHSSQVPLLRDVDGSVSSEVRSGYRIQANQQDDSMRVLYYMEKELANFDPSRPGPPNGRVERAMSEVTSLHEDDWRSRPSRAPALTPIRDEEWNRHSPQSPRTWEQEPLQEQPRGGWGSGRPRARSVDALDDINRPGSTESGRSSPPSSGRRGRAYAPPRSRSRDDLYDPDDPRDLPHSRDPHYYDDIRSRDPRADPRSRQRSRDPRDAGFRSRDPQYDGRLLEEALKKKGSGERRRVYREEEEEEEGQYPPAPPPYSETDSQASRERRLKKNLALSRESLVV
T1 sequence (Q9WU74 36-525 isoform Q9WU74-3 limits assumed): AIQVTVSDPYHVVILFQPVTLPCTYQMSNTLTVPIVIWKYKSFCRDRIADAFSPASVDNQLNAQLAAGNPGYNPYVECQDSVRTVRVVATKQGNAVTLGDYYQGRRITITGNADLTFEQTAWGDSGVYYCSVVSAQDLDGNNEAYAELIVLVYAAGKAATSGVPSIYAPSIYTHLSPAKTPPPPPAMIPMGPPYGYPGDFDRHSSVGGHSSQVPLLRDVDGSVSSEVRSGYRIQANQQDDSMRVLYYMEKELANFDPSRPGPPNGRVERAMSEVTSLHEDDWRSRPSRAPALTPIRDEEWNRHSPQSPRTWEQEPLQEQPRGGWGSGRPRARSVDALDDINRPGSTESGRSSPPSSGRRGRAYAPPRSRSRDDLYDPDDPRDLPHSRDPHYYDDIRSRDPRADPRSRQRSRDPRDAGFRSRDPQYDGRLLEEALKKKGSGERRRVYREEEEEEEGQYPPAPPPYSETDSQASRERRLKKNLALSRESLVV
Method: The LSR activity in the primary cultures of rat hepatocytes is measured by the binding, internalization and degradation of ^125I-LDL and ^125I-VLDL (LDL: low-density lipoprotein; VLDL: very low-density lipoprotein), as described in Bihain and Yen, 1992 and Mann et al., 1995.
It has been shown that gC1q-R could bind the globular head of […]. We sought to use this property of C1q to displace gC1q-R combined with LSR, and we measured the effect of increasing doses of C1q on the binding, internalization and degradation of the LDLs by hepatocytes in primary culture.

Row | capture and degradation of LDLs (LSR; human C1q, in the absence of oleate) | Molecule | induction by leptin of the LSR activity (increase in apparent number of receptors) (LSR receptors) | capture and degradation of LDLs (LSR; C1q, in the presence of oleate)
1 |  | C[C@@H]1C[C@@H]([C@H](O)CC2CC(=O)NC(=O)C2)C(=O)[C@@H](C)C1 [cycloheximide] | partially inhibited | 
2 | increase | C1q: human complement factor C1q, binds gC1q-R |  | less substantial, but nevertheless significant, increase
3 |  | C=C1[C@@H](C)[C@H]2[C@H](Cc3ccccc3)NC(=O)[C@]23OC(=O)/C=C/[C@H](O)CCC[C@@H](C)C/C=C/[C@H]3[C@@H]1O [cytochalasin B] | inhibited | 
